Where two headings read alike, the source gives them in different places.

From US6436705B1, “Shape stabilized erythrocytes” (The United States of America as represented by the …, priority 1997, dated 2002) come the findings set out here.

One assay relates to Red blood cells. Nature of the assay: Deformability measurements with an ektacytometer (Shear-scan, Osmo-scan). The following applies: 5 mM DTBP for 1 h. Format: cell-based, human. The procedure: Red blood cells were cross-linked with 5 mM DTBP for 1 h. Cross-linking was reversed with 10 mM DTT for 20 min. Deformability measurements were made with fresh untreated, cross-linked, and reversed cells as well as with untreated packed cells stored in CPDA-1 for 6 weeks at 4° C. The effects of cross-linking and reversal on red blood cell deformability were measured with an ektacytometer (Technicon).
The ektacytometer is a laser diffraction viscometer described in detail by Bessiss and Mohandas. Intact red blood cells and ghosts suspended in solution produce a diffuse circular laser diffraction pattern. The instrument takes advantage of the fact that when a shear force is applied to the solution crossing the beam the cells align in the direction of shear and begin deforming into uniformly oriented ellipsoids. The laser diffraction pattern then takes on an ellipsoidal shape oriented 90° from the major elliptical cell axis, with the ratio of the long axis to the short axis length determined by the degree of cell deformation. A signal proportional to mean cellular ellipticity is derived from photometric measurement of this laser diffraction pattern in the two axis directions and is designated the deformability index (DI).
Two types of deformability profiles were generated in the present experiments. […] Shear-scans were run with 40 μl of concentrated cell suspension (80% hematocrit) mixed with 3.0 ml of 3.1% (w/v) polyvinylpyrrolidone (P, av-MW 360 kD) solution containing 138 mM NaCl, 6.34 mM Na2HPO4, 2 mM NaH2PO4, and 0.04% (w/v) NaN3 with pH=7.35±0.05, osmolality=290 mOsmol/kg (by freezing point depression), and viscosity=20 cp (assumed). Osmo-scans were run by continuous addition of this suspension medium containing 100 μl of cells to a PVP solution with a graded salt concentration. Salt gradients were made by addition of high salt PVP solution with 386 mM NaCI (osmolality=750 mOsmol/kg) to a low salt PVP solution with 2.5 mM NaCl (osmolality=40 mOsmol/kg). Conductance measurements of the cell suspension in the viscometer provided an indirect measure of osmolality, which was calculated from a standard calibration curve.
Data was recorded onto a computer, and curves were fitted and plotted using custom routines in Matlab (The Math Works Inc, Natick, Mass.). Shear scans were fitted with a polynomial of degree 6 from which the maximum DI (DImax) was calculated. Osmo-scans were fitted with a running average, and DImax was calculated within the range of 180-240 mOsmol/Kg, along with the osmolality corresponding to 1/2DImax at hypertonic salt concentrations (0′), where DI decreases with increasing intracellular viscosity secondary to cell shrinkage and increased hemoglobin concentration (see Mohandas et al., J. Clin. Invest. 66563-73(1980)). The osmolality corresponding to the minimum DI (Omin) at hypotonic salt concentrations, where DI falls due to cell swelling, was also calculated. The height of the small DI peak thought to be associated with the sudden availability of excess membrane for deformation as intracellular ions and water are lost in the lower range of hypotonic salt (63-125 mOsmol/Kg) concentrations was also recorded (see Clark et al., Blood 61 899-910 (1983)).

Assay [1] deals with Human erythrocytes. Kind of assay: cells. Type of assay: cell-based. On the procedure:
Packed human erythrocytes from healthy donors were obtained from the National Naval Medical Center (Bethesda, Md.) within 48 h of donation and used within 7 days. Packed erythrocytes were washed twice in phosphate buffer solution (PBS) then re-suspended in PBS (1 vol PBS:1 vol packed cells). The erythrocyte suspension (100 ml) was placed on ice and carbon monoxide (CO) was bubbled through it for 2 hours. Saturation with CO (100%) was achieved under these conditions as detected with a CO-oximeter. Erythrocytes were packed and cross-linked with DTBP at 4° C. for different incubation times (from 1 to 24 h; 9 vol cross-linking solution: 1 vol packed cells). The cross-linking solution was prepared by dissolving DTBP in PBS (pH 7.8). After incubation DTBP was removed by repeated washing of the red cells in PBS (IEC Centra centrifuge for 10 min at 1008×g). Reversal of the cross-linking was carried out at room temperature with the reducing agent dithioerythritol (DTT) at a concentration of 10 mM in PBS (9 vol reducing solution: 1 vol packed cells) for 20 min or as indicated in the figure legends. DTT was removed by repeated washing of the red cells in PBS (IEC Centra centrifuge for 10 min at 1008×g). CO-treatment was reversed at room temperature using a hollow fiber membrane oxygenator model Capiox 308. Erythrocytes were processed through the oxygenator for 1 h. Saturation with oxygen (92%) was reached as detected with a CO-oximeter.
Erythrocytes were cross-linked with DTBP at different concentrations for different incubation times. 1 ml of the erythrocyte suspension was taken out at regular incubation times centrifuged and DTBP was removed (Eppendorf centrifuge for 3 min at 3000×g). Distilled water (1 ml) was added to the remaining packed cells. After 30 min the cells were again centrifugated (Eppendorf centrifuge for 3 min at 3000×g), and the supernatants were processed for hemolysis measurements. For determination of hemolysis the cyanmethemoglobin method was applied (see Brown in “Hematology: principles and procedures” pp. 29-31 (Lea and Febiger, eds., 1984)). Absorbance was measured at 540 nm and percent hemolysis was determined by Equation (1), supra, where the control sample was lysed in distilled water.
Erythrocyte stability in distilled water was tested after crosslinking reversal as well. Red blood cells were first cross-linked with DTBP then treated with DTT at different concentrations (from 1 to 10 mM) for different incubation times (from 5 to 20 min). Hemolysis in distilled water was measured as described above.

Assay [2] concerns Human erythrocytes. Nature of the assay: Osmotic fragility test. Type of assay: cell-based. The following applies: 5 mM DTBP. The procedure: An osmotic fragility test (a common clinical test) was performed on erythrocytes cross-linked with 5 mM DTBP for different incubation times and on erythrocytes cross-linked and reversed with DTT. Briefly, 1 ml of the erythrocyte suspension was taken out at regular incubation times, centrifuged, and DTBP or DTT was removed (Eppendorf centrifuge for 3 min at 3000×g). 1 ml of solutions containing buffered sodium sodium chloride at different concentrations (from 1% to 0.1% NaCl in phosphate buffer) were added to the packed cells. After 30 min the samples were centrifugated (Eppendorf centrifuge for 3 min at 3000×g), and the supernatants were processed for hemolysis measurements.

The mark [3] stands for this setting: Homo sapiens, Erythrocyte, 4 h, read-out: hemolysis in distilled water.

As to `COC(=N)CCSSCCC(=N)OC` [DTBP, Dimethyl-3,3′-dithiobispropionimidate], the DImax with Red blood cells (Osmo-scan) came out at 0.30. Besides, the “Omin (osmolality corresponding to the minimum DI)” value in the assay on Red blood cells (Osmo-scan) was found to be 125 mOsmol/Kg. The “O′ (osmolality corresponding to 1/2DImax at hypertonic salt)” value in the assay on Red blood cells (Osmo-scan) was 264 mOsmol/Kg. Besides, in the assay with Red blood cells (Osmo-scan, FIG. 7), the “reduction of DImax” value came out at 36%. In addition, the “reduction of red cell deformability as a function of shear stress” value with Red blood cells (Shear-scan, FIG. 6) was “over half”. Further, the “hemolysis in distilled water” value in the assay on Human erythrocytes [1] (1 or 3 mM DTBP, even after prolonged incubation times) is recorded as “did not produce cells stable to hemolysis in distilled water”. Moreover, the hemolysis at 5000 µM in the assay on Human erythrocytes [1] (Homo sapiens, Erythrocyte, 3 h, read-out: hemolysis in distilled water) came out at 100%; in the assay on Human erythrocytes [1] (setting [3]), 88%; in the assay with Human erythrocytes [1] (Homo sapiens, Erythrocyte, 5 h, read-out: hemolysis in distilled water), 67%; with Human erythrocytes [1] (Homo sapiens, Erythrocyte, 7 h, read-out: hemolysis after the treatment with DTT), 35%; with Human erythrocytes [1] (Homo sapiens, Erythrocyte, 7 h, read-out: hemolysis in distilled water), 45%; with Human erythrocytes [1] (Homo sapiens, Erythrocyte, 24 h, read-out: hemolysis after the treatment with DTT) it was 100%. The hemolysis at 5000 µM in the assay with Human erythrocytes [1] (Homo sapiens, Erythrocyte, 24 h, read-out: hemolysis in distilled water) was determined as 10%. Also, the hemolysis at 7000 µM in the assay with Human erythrocytes [1] (setting [3]) amounted to 21%. The hemolysis at 10000 µM in the assay on Human erythrocytes [1] (setting [3]) worked out at 0%. For the same molecule, the “stability in the presence of the reducing agent (DTT)” value in the assay on Human erythrocytes [1] (cells with lower degree of stabilization (5 mM DTBP 5 h, 67% lysis in water)) is recorded as “stable in the presence of the reducing agent”. Besides, the entries for the “NaCl concentration at which hemolysis started” value in the assay with Human erythrocytes [2] (1 h cross-linked cells) and with Human erythrocytes [2] (3 h cross-linked cells) were 0.4 % NaCl and 0.30 % NaCl, respectively. The “NaCl concentration at which total lysis was first measured” value with Human erythrocytes [2] (1 h cross-linked cells) is listed as 0.1 % NaCl; in the assay on Human erythrocytes [2] (3 h cross-linked cells), 0.0 % NaCl.
